From patent publication US20040087571A1, “Methods of using CCR1 antagonists as immunomodulatory agents” (Pfizer Inc, priority 2002, published 2004) come the findings set out here.

The structures appear in SMILES notation.

Series [1] in a line: Solubility. It is filed as physicochemical.

With `CC(C)(O)CC[C@H](C[C@H](O)[C@H](Cc1cccs1)NC(=O)c1cnc2ccccc2n1)C(N)=O` [Example 313, Quinoxaline-2-carboxylic Acid (4(r)-carbamoyl-2(s),7-dihydroxy-7-methyl-1(s)-thiophen-2-ylmethyl-octyl)-amide], the solubility in series [1] is over 250 mg/mL. Consider `CCCC1CCC(O)([C@H](C[C@H](O)[C@H](Cc2ccccc2)NC(=O)c2cnc3ccccc3n2)C(N)=O)CC1` (stereo partly drawn) [Example 300, Quinoxaline-2-carboxylic acid [1(S)-benzyl-4(S)-carbamoyl-2(S)-hydroxy-4-(1-hydroxy-4-propyl-cyclohexyl)-butyl]-amide], for which the melting point was in the range of 227 to 228 °C. In turn, `CNC(=O)[C@H](CC(C)C)C[C@H](O)[C@H](CC1CCC(F)(F)CC1)NC(=O)c1cnc2ccccc2n1` [Example 108, Quinoxaline-2-carboxylic acid [1(S)-(4,4-difluoro-cyclohexylmethyl)-2(S)-hydroxy-6-methyl-4(R)-methylcarbamoyl-heptyl]-amide] came in with a melting point of 95 to 98 °C. Same read-out and setting: with `NC(=O)[C@H](Cc1cccc(F)c1)C[C@H](O)[C@H](Cc1ccccc1)NC(=O)c1cnc2ccccc2n1` [Example 292, Quinoxaline-2-carboxylic acid [1(S)-benzyl-4(R)-carbamoyl-5-(3-fluoro-phenyl)-2(S)-hydroxy-pentyl]-amide] the figure was 176 to 179 °C; with `CC(C)(O)CC[C@H](C[C@H](O)[C@H](Cc1ccc(F)c(F)c1)NC(=O)c1cnc2ccccc2n1)C(=O)NO` [Example 322, Quinoxaline-2-carboxylic acid [1(S)-(3,4-difluoro-benzyl)-2(S),7-dihydroxy-4(R)-hydroxycarbamoyl-7-methyl-octyl]-amide], 150 to 153 °C. On the same count and under the same terms, the same measure for `CC(C)(F)CC[C@H](C[C@H](O)[C@@H](NC(=O)c1cnc2ccccc2n1)c1ccccc1)C(N)=O` [Example 266, Quinoxaline-2-carboxylic acid (4(R)-carbamoyl-7-fluoro-2(S)-hydroxy-7-methyl-1(S)-phenyl-octyl)-amide]: 159 to 160.5 °C; for `CC1CCC(O)([C@H](C[C@H](O)[C@H](Cc2ccccc2)NC(=O)c2cnc3ccccc3n2)C(N)=O)CC1` (stereo partly drawn) [Example 278, Quinoxaline-2-carboxylic acid [1(S)-benzyl-4(S)-carbamoyl-2(S)-hydroxy-4-(1-hydroxy-4-methyl-cyclohexyl)-butyl]-amide]: 230 to 233 °C; for `NC(=O)[C@H](CC1CCC(F)(F)CC1)C[C@H](O)[C@H](Cc1ccccc1)NC(=O)c1cnc2ccccc2n1` [Example 133, Quinoxaline-2-carboxylic acid [1(S)-benzyl-4(R)-carbamoyl-5-(4,4-difluoro-cyclohexyl)-2(S)-hydroxy-pentyl]-amide]: 174 to 176 °C. On the same count and under the same terms, with `NC(=O)[C@H](Cc1ccc(OC(F)(F)F)cc1)C[C@H](O)[C@H](Cc1ccccc1)NC(=O)c1cnc2ccccc2n1` [Example 193, Quinoxaline-2-carboxylic acid [1(S)-benzyl-4(R)-carbamoyl-2(S)-hydroxy-5-(4-trifluoromethoxy-phenyl)-pentyl]-amide] the figure was 184 to 187 °C; with `CC(C)CNC(=O)CC[C@H](O)[C@H](Cc1ccccc1)NC(=O)c1cnc2ccccc2n1` [Example 294, Quinoxaline-2-carboxylic acid (1(S)-benzyl-2(S)-hydroxy-4-isobutylcarbamoyl-butyl)-amide], 146 to 148 °C; with `CNC(=O)[C@H](CC(C)C)C[C@H](O)[C@H](CC(C)C)NC(=O)c1cnc2ccccc2c1` [Example 10, Quinoline-3-carboxylic acid (2(S)-hydroxy-1(S)-isobutyl-6-methyl-4(R)-methylcarbamoyl-heptyl)-amide], 155 to 157 °C.

As usually defined, the solubility is how much of the substance goes into solution per volume. Low readings indicate a poorly soluble substance, high ones a readily soluble substance. Usually melting point stands for the temperature, or range, at which the solid turns liquid.
